Assay results: US20260265329A1, “POLYPEPTIDE AND DERIVATIVE THEREOF, COMPOSITION, AND USE THEREOF” (HANGZHOU SCIWIND BIOSCIENCES CO., LTD., priority 2023, published 2026)
Starred links: 1 amine or outer side, 2 acyl side, 3 side chain; linkers in the order of their positions; H or OH if unused. Non-standard residues stand in square brackets, D forms with d. Residues, ends and D or L forms follow the SMILES beside them. *: point of attachment. C20 diacid = O=C(O)CCCCCCCCCCCCCCCCCCC(=O)*; γGlu = O=C(O)[C@H](CCC(=O)[*:2])N[*:1]; βAsp = O=C(O)[C@H](CC(=O)[*:2])N[*:1]; Hyp = O=C(O)[C@@H]1C[C@@H](O)CN1; Trx = NC[C@H]1CC[C@H](C(=O)O)CC1

Molecular target: T1, human amylin receptors (Homo sapiens, UniProt O60896+P30988)
T1 construct: host or cells: CHO-K1/Ga15/AMY3 cells, further stably transfected with a CRE-luciferase plasmid
T1 sequence (P30988 25-474): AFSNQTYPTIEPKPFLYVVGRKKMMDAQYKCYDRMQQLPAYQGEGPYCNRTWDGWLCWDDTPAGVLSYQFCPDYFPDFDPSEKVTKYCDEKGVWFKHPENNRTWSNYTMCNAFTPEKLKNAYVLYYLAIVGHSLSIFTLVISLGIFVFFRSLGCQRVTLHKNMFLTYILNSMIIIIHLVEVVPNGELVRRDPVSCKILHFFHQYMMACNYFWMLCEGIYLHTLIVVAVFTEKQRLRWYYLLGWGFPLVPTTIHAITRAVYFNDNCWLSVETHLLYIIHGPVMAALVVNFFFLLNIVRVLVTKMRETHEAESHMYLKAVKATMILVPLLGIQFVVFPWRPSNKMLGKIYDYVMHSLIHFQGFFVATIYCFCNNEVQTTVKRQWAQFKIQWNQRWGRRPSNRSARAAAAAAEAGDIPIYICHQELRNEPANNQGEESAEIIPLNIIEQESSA
T1 sequence (O60896 24-148 partner): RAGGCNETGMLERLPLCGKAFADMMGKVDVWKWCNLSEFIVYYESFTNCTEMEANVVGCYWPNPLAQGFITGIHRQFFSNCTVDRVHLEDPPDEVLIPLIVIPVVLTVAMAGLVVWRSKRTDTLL
Assay: Luciferase assay in stably transfected amylin receptor/CRE-luc CHO cell line
Type: cell-based
Conditions: for Relative activity: EC50 ratio of Cagrilintide to the compound, Cagrilintide 100%; for EC50: amylin receptor/CRE-luc CHO cells, 24 hours incubation, luminescence
Source text: The objective of this assay is to test the potency of derivatives of polypeptides of the present application on human amylin receptors in vitro using a luciferase assay. Using the standard protocol, CHO-K1/Ga15/AMY3 cells (purchased from GenScript, with the calcitonin receptor and the receptor activity modifying peptide (RAMP) constructed already) were transfected with a plasmid containing a luciferase expression cassette driven by multiple copies of cAMP response elements (CREs). The cells were cultured in an F12 medium containing 200 μg/mL Zeocin, 2 μg/mL puromycin, 100 μg/mL hygromycin, and 400 μg/mL G418 to afford a stably transfected amylin receptor/CRE-luc cell line. The lyophilized powder from Example 1 was dissolved in 20 mM phosphate buffer solution with a pH of 7.0, and diluted in a growth medium (F12 culture medium containing 10% FBS) to give a derivative sample with an initial concentration of 10 nM, which was then subjected to a 5-fold serial dilution in the growth medium to obtain seven samples with concentrations between […]. In each well of a white 96-well plate, 50 μL of the tested sample solution was added with a corresponding concentration. The stably transfected amylin receptor/CRE-luc CHO cells were resuspended in the growth medium at a certain density, and 50 μL of the cell suspension was added at a density of about 20000 cells per well to the white 96-well plate containing the tested sample solution. After incubation of 24 hours at 37° C. and 5% CO2, 100 μL of a Luciferase substrate was added to each well, incubated for 3 minutes, and finally was tested for luminescence on SpectraMax L (Molecular Devices) with the software SoftMax Pro 7.0.3 GxP.

Compound | Relative activity [%] | EC50 [pM]
CC[C@H](C)[C@H](NC(=O)[C@@H]1CCCN1C(=O)[C@H](CCCCN)NC(=O)[C@H](CC(C)C)NC(=O)[C@H](CC(N)=O)NC(=O)[C@H](CC(N)=O)NC(=O)[C@H](CO)NC(=O)[C@H](CO)NC(=O)[C@H](Cc1c[nH]cn1)NC(=O)[C@H](CCCNC(=N)N)NC(=O)[C@H](CC(C)C)NC(=O)[C@H](Cc1ccccc1)NC(=O)[C@H](CC(=O)O)NC(=O)[C@H](C)NC(=O)[C@H](CC(C)C)NC(=O)[C@H](CCCNC(=N)N)NC(=O)CNC(=O)[C@H](CC(C)C)NC(=O)[C@H](C)NC(=O)[C@H](C)NC(=O)[C@@H](NC(=O)[C@H](CO)NC(=O)[C@H](CC(C)C)NC(=O)[C@H](CCC(=O)O)NC(=O)[C@H](CO)NC(=O)[C@H](C)NC(=O)CC[C@H](NC(=O)CCCCCCCCCCCCCCCCCCC(=O)O)C(=O)O)[C@@H](C)O)C(=O)N[C@@H](CC(C)C)C(=O)N1CCC[C@H]1C(=O)N1CCC[C@H]1C(=O)N[C@H](C(=O)N[C@@H](CC(N)=O)C(=O)N[C@H](C(=O)NCC(=O)N[C@@H](CO)C(=O)N[C@@H](CC(N)=O)C(=O)N[C@H](C(=O)N1C[C@H](O)C[C@H]1C(N)=O)[C@@H](C)O)C(C)C)[C@@H](C)O [M1] ({C20 diacid-γGlu}-ASELSTAALGRLADFLRHSSNNLKPILPPTNVGSNT[Hyp]-NH2) | 49 | 53
CC[C@H](C)[C@H](NC(=O)[C@H](CC(=O)O)NC(=O)[C@H](CCCNC(=N)N)NC(=O)[C@H](CC(=O)O)NC(=O)[C@H](CCCNC(=N)N)NC(=O)[C@H](CC(=O)O)NC(=O)[C@@H](NC(=O)[C@H](Cc1ccccc1)NC(=O)[C@H](Cc1c[nH]cn1)NC(=O)[C@H](CCCNC(=N)N)NC(=O)[C@H](CC(C)C)NC(=O)[C@H](Cc1ccccc1)NC(=O)[C@H](CC(=O)O)NC(=O)[C@H](C)NC(=O)[C@H](CC(C)C)NC(=O)[C@H](CCCNC(=N)N)NC(=O)CNC(=O)[C@H](CC(C)C)NC(=O)[C@H](C)NC(=O)[C@H](C)NC(=O)[C@@H](NC(=O)[C@H](CO)NC(=O)[C@H](CC(C)C)NC(=O)[C@H](CCC(=O)O)NC(=O)[C@H](CO)NC(=O)[C@H](C)NC(=O)CC[C@H](NC(=O)CCCCCCCCCCCCCCCCCCC(=O)O)C(=O)O)[C@@H](C)O)[C@@H](C)O)C(=O)N[C@@H](CC(C)C)C(=O)N1CCC[C@H]1C(=O)N1CCC[C@H]1C(=O)N[C@H](C(=O)N[C@@H](CC(N)=O)C(=O)N[C@H](C(=O)NCC(=O)N[C@@H](CO)C(=O)N[C@@H](CC(N)=O)C(=O)N[C@H](C(=O)N1CCC[C@H]1C(N)=O)[C@@H](C)O)C(C)C)[C@@H](C)O [M3] ({C20 diacid-γGlu}-ASELSTAALGRLADFLRHFTDRDRDILPPTNVGSNTP-NH2) | 32 | 81
CC[C@H](C)[C@H](NC(=O)[C@H](CC(=O)O)NC(=O)[C@H](CCCNC(=N)N)NC(=O)[C@H](CC(=O)O)NC(=O)[C@H](CCCNC(=N)N)NC(=O)[C@H](CC(=O)O)NC(=O)[C@@H](NC(=O)[C@H](Cc1ccccc1)NC(=O)[C@H](Cc1c[nH]cn1)NC(=O)[C@H](CCCNC(=N)N)NC(=O)[C@H](CC(C)C)NC(=O)[C@H](Cc1ccccc1)NC(=O)[C@H](CC(=O)O)NC(=O)[C@H](C)NC(=O)[C@H](CC(C)C)NC(=O)[C@H](CCCNC(=N)N)NC(=O)[C@H](CCC(N)=O)NC(=O)[C@@H](NC(=O)[C@H](C)NC(=O)[C@H](C)NC(=O)[C@@H](NC(=O)[C@H](CO)NC(=O)[C@H](CC(C)C)NC(=O)[C@H](CCC(N)=O)NC(=O)[C@H](CO)NC(=O)[C@H](C)NC(=O)[C@H](CCC(=O)O)NC(=O)CCCCCCCCCCCCCCCCCCC(=O)O)[C@@H](C)O)[C@@H](C)O)[C@@H](C)O)C(=O)N[C@@H](CC(C)C)C(=O)N1CCC[C@H]1C(=O)N1CCC[C@H]1C(=O)N[C@H](C(=O)N[C@@H](CC(N)=O)C(=O)N[C@H](C(=O)NCC(=O)N[C@@H](CO)C(=O)N[C@@H](CC(N)=O)C(=O)N[C@H](C(=O)N1CCC[C@H]1C(N)=O)[C@@H](C)O)C(C)C)[C@@H](C)O [M11] ({C20 diacid}-EASQLSTAATQRLADFLRHFTDRDRDILPPTNVGSNTP-NH2) | 110 | 4
CC[C@H](C)[C@H](NC(=O)[C@H](CC(=O)O)NC(=O)[C@H](CCCNC(=N)N)NC(=O)[C@H](CC(=O)O)NC(=O)[C@H](CCCNC(=N)N)NC(=O)[C@H](CC(=O)O)NC(=O)[C@@H](NC(=O)[C@H](Cc1ccccc1)NC(=O)[C@H](Cc1c[nH]cn1)NC(=O)[C@H](CCCNC(=N)N)NC(=O)[C@H](CC(C)C)NC(=O)[C@H](Cc1ccccc1)NC(=O)[C@H](CC(=O)O)NC(=O)[C@H](C)NC(=O)[C@H](CC(C)C)NC(=O)[C@H](CCCNC(=N)N)NC(=O)[C@H](CCC(N)=O)NC(=O)[C@@H](NC(=O)[C@H](C)NC(=O)[C@H](C)NC(=O)[C@@H](NC(=O)[C@H](CO)NC(=O)[C@H](CC(C)C)NC(=O)[C@H](CCC(N)=O)NC(=O)[C@H](CO)NC(=O)[C@H](C)NC(=O)C[C@H](NC(=O)CCCCCCCCCCCCCCCCCCC(=O)O)C(=O)O)[C@@H](C)O)[C@@H](C)O)[C@@H](C)O)C(=O)N[C@@H](CC(C)C)C(=O)N1CCC[C@H]1C(=O)N1CCC[C@H]1C(=O)N[C@H](C(=O)N[C@@H](CC(N)=O)C(=O)N[C@H](C(=O)NCC(=O)N[C@@H](CO)C(=O)N[C@@H](CC(N)=O)C(=O)N[C@H](C(=O)N1CCC[C@H]1C(N)=O)[C@@H](C)O)C(C)C)[C@@H](C)O [M12] ({C20 diacid-βAsp}-ASQLSTAATQRLADFLRHFTDRDRDILPPTNVGSNTP-NH2) | 78 | 34

The remaining lines, values ahead:

Relative activity [%] | EC50 [pM] | Compound
78 | 34 | CC[C@H](C)[C@H](NC(=O)[C@H](CC(=O)O)NC(=O)[C@H](CCCNC(=N)N)NC(=O)[C@H](CC(=O)O)NC(=O)[C@H](CCCNC(=N)N)NC(=O)[C@H](CC(=O)O)NC(=O)[C@@H](NC(=O)[C@H](Cc1ccccc1)NC(=O)[C@H](Cc1c[nH]cn1)NC(=O)[C@H](CCCNC(=N)N)NC(=O)[C@H](CC(C)C)NC(=O)[C@H](Cc1ccccc1)NC(=O)[C@H](CC(=O)O)NC(=O)[C@H](C)NC(=O)[C@H](CC(C)C)NC(=O)[C@H](CCCNC(=N)N)NC(=O)[C@H](CCC(N)=O)NC(=O)[C@@H](NC(=O)[C@H](C)NC(=O)[C@H](C)NC(=O)[C@@H](NC(=O)[C@H](CO)NC(=O)[C@H](CC(C)C)NC(=O)[C@H](CCC(N)=O)NC(=O)[C@H](CO)NC(=O)[C@H](C)NC(=O)[C@H](CC(=O)O)NC(=O)CCCCCCCCCCCCCCCCCCC(=O)O)[C@@H](C)O)[C@@H](C)O)[C@@H](C)O)C(=O)N[C@@H](CC(C)C)C(=O)N1CCC[C@H]1C(=O)N1CCC[C@H]1C(=O)N[C@H](C(=O)N[C@@H](CC(N)=O)C(=O)N[C@H](C(=O)NCC(=O)N[C@@H](CO)C(=O)N[C@@H](CC(N)=O)C(=O)N[C@H](C(=O)N1CCC[C@H]1C(N)=O)[C@@H](C)O)C(C)C)[C@@H](C)O [M13] ({C20 diacid}-DASQLSTAATQRLADFLRHFTDRDRDILPPTNVGSNTP-NH2)
136 | – | CC[C@H](C)[C@H](NC(=O)[C@H](CC(=O)O)NC(=O)[C@H](CCCNC(=N)N)NC(=O)[C@H](CC(=O)O)NC(=O)[C@H](CCCNC(=N)N)NC(=O)[C@H](CC(=O)O)NC(=O)[C@@H](NC(=O)[C@H](Cc1ccccc1)NC(=O)[C@H](Cc1c[nH]cn1)NC(=O)[C@H](CCCNC(=N)N)NC(=O)[C@H](CC(C)C)NC(=O)[C@H](Cc1ccccc1)NC(=O)[C@H](CC(=O)O)NC(=O)[C@H](C)NC(=O)[C@H](CC(C)C)NC(=O)[C@H](CCCNC(=N)N)NC(=O)[C@H](CCC(N)=O)NC(=O)[C@@H](NC(=O)[C@H](C)NC(=O)[C@H](C)NC(=O)[C@@H](NC(=O)[C@H](CO)NC(=O)[C@H](CC(C)C)NC(=O)[C@H](CCC(N)=O)NC(=O)[C@H](CO)NC(=O)[C@H](C)NC(=O)[C@H]1CC[C@H](CNC(=O)CCCCCCCCCCCCCCCCCCC(=O)O)CC1)[C@@H](C)O)[C@@H](C)O)[C@@H](C)O)C(=O)N[C@@H](CC(C)C)C(=O)N1CCC[C@H]1C(=O)N1CCC[C@H]1C(=O)N[C@H](C(=O)N[C@@H](CC(N)=O)C(=O)N[C@H](C(=O)NCC(=O)N[C@@H](CO)C(=O)N[C@@H](CC(N)=O)C(=O)N[C@H](C(=O)N1CCC[C@H]1C(N)=O)[C@@H](C)O)C(C)C)[C@@H](C)O [M14] ({C20 diacid-Trx}-ASQLSTAATQRLADFLRHFTDRDRDILPPTNVGSNTP-NH2)
